Laboratory results as given in paper PMC11220827 (Frontiers in Pharmacology, 2024).
Read-outs that look alike come from different tables or passages of the source.

What was measured:
HepG2 cells [1] = experiment: cells; type: cell-based; settings: for AC50: Homo sapiens, HepG2, 24 h
Estrogen pathway = tested on: Estrogen pathway; parameters: method as in ToxCast; settings: ref ToxCast, cited from earlier work; for Estrogen pathway: Cell Proliferation, Call: key: Pos = positive result; Neg = negative result; Inc = uncertain/inconclusive result
U2-OS cells = settings: human, 24 h
Protocol: using the U2-OS based CALUX cytotox bioassay. The cytotoxicity of each test chemical was assessed using the U2-OS based cytotoxicity CALUX bioassay. Concentrations causing >20% reduction of luminescence were considered cytotoxic.
cytotoxicity (relative induction in the cytotoxicity CALUX bioassay > 80%) were used for final
evaluation of analysis results.
induction in the cytotox CALUX bioassay > 80%) were used for final evaluation of analysis results.
All analysis results were expressed in molar (M) final in well.
For the analyses in the presence of rat liver S9, 0.03% (v/v) of PB/BNF induced rat liver
S9 mix (including NADPH and an NADPH-regenerating system) was added to the cells directly after
addition of the compounds, which remained there for the duration of the exposure period (24 h) (van

PDE4D2 (h) = PDE4D2 (h) (Homo sapiens, UniProt Q08499); experiment: Pharmacology profiling: PDE4D2 (h) (phosphodiesterase 4D); type: biochemical; settings: read-out: PDE4D2 (h) (phosphodiesterase 4D): % inhibition @10 µM
Sequence of PDE4D2 (h) (Q08499 303-809): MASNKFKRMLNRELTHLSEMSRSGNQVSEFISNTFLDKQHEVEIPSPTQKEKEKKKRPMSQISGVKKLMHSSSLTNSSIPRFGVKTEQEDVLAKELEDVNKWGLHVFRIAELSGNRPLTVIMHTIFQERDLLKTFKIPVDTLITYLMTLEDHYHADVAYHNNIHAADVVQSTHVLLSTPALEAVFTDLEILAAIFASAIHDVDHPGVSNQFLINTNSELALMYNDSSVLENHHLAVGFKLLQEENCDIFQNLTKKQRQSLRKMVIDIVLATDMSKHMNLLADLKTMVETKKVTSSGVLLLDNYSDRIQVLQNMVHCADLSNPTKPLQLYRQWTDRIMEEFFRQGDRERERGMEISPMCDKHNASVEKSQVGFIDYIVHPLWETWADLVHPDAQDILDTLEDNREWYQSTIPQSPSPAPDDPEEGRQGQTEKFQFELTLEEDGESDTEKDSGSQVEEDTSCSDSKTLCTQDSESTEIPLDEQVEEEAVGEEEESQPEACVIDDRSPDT
From the text: (§1) Cosmetics Europe’s Systemic Toxicity Taskforce (SysTox-TF) has extended the list of targets in an in vitro screen originally described by [Bowes et al. (2012)] to assess the effects of cosmetic chemicals on target molecules. The approach was based on the knowledge that various targets of pharmacological interest have been linked to human adverse drug reactions, and that screening of these has helped the pharma industry in identifying drug candidates with acceptable human safety profiles ([Bowes et al., 2012]; [Scott et al., 2022]). The methods used by the pharma industry were adapted for use in cosmetic chemical NGRA. A final list of 83 target assays were considered suitable for cosmetic chemical safety testing (see Supplementary Materials S1.7). The targets were receptors, ion channels, transporters and enzymes identified by the pharma industry as linked to human adverse drug reactions, supplemented by additional targets that have been reasoned to be linked to systemic toxicities of chemicals in animals. Chemicals that are flagged for a target are tested in follow-up dose-response assays to establish potency of the interaction. […]. [Valentin et al., 2018]; [Dodson et al., 2021]). […].
(§2) assay’s reference compound was set to 100%. For antagonist assays, the basal signal (exposure to fixed concentration of agonist only) was set to 100%. Activity of the samples was scaled accordingly, […]
(§3) Using these graphs, lowest […]
(§4) compound activity for antagonist assays.
(§5) S1.7. Pharmacology profiling assays […]
(§6) reasoned to link to pathological effects. […]
(§7) around the control level. […]
(§8) determine the potency (IC50).
(§9) Supplementary Table S4 Pharmacology profiling assay panel. […]

[2] = type: in vitro ADME; settings: human, 24 h
From the text: Additional information was required to determine whether an adjustment factor was needed to account for a difference in the absorption of daidzein after topical application and whether the absorption was impacted by the use of the intended (body lotion base) formulation. […]. […] […]. The results of this study are described in detail by [Géniès et al. (2024)] and are summarized here.

Aromatase = tested on: Aromatase; parameters: method as in ToxCast; settings: ref ToxCast; cited from earlier work; note: key: Pos = positive result; Neg = negative result; Inc = uncertain/inconclusive result
5-HT2B (h) = 5-HT2B (h) (Homo sapiens, UniProt P41595); experiment: Pharmacology profiling: 5-HT2B (h) (agonist RL); type: binding; settings: read-out: 5-HT2B (h) (agonist RL): % inhibition @10 µM
Sequence of 5-HT2B (h) (P41595 whole entry): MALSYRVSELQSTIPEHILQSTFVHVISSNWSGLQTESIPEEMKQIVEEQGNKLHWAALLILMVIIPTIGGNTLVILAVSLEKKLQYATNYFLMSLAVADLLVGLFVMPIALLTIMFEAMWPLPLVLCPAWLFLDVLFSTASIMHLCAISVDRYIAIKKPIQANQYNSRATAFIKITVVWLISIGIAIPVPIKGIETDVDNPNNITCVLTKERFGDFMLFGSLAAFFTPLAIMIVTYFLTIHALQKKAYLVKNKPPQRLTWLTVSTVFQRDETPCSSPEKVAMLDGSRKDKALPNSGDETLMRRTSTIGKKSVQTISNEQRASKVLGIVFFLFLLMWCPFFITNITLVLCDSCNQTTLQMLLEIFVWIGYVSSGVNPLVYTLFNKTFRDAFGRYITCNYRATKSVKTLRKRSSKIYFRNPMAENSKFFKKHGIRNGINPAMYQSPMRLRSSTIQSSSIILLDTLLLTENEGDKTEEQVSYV
From the text: as §1, §2, §3, §4, §5, §6, §7, §8, §9

TSHR = tested on: TSHR; parameters: method as in ToxCast; settings: ref ToxCast; cited from earlier work; note: key: Pos = positive result; Neg = negative result; Inc = uncertain/inconclusive result
HepG2 cells [3] = experiment: Transcriptomics (TempO-Seq, BMD analysis) in HepG2 cells; type: cell-based, human
Protocol: (§10) These differed with respect to the number of genes passing all filters in each pathway (3 versus 5 genes). […] Therefore, we captured pathways which fulfilled both criteria.
(§11) HepG2 (human hepatoblastoma) , MCF-7 (human breast adenocarcinoma) cells supplied by
(§12) Public Health England European Collection of Cell Cultures (ECACC, Salisbury, UK). Differentiated
(§13) HepaRG cells (HPR116, Lot HPR116239 -TA08) were from Biopredic International (Rennes, France).
(§14) Test chemicals were prepared in DMSO as serial dilutions, resulting in concentrations in media of
(§15) biological replicates were treated with the appropriate dose of co mpound for 24 h prior to cell lysis.
(§16) Biospyder human whole genome panel version 1 (https://biospyder.com).
Gene normalization and analysis
(§17) expression values for each probe were normalized by applying DESEQ2 normalization. A pseudo-
(§18) read-count of 1.0 was added to each normalized expression value, and then the values were log2
(§19) transformed . Analyses performed included Gene and Pathway, Dose Response and Network
(§20) monotonic increasing/decreasing trend were those which confirmed to the criteria : William’s trend
(§21) Those genes were then used in categorical (pathway) analysis for the Gene Ontology (GO) terms and
(§22) REACTOME pathways. Significant dose responsive pathways were determined according to : Fisher’s

Deiodinase = tested on: Deiodinase; parameters: method as in ToxCast; settings: ref ToxCast, cited from earlier work
HepaRG cells = experiment: Transcriptomics (TempO-Seq, BMD analysis) in HepaRG cells; type: cell-based
Protocol: as §10, §11, §12, §13, §14, §15, §16
Gene normalization and analysis
as §17, §18, §19, §20, §21, §22

Thyroid peroxidase = tested on: Thyroid peroxidase; parameters: method as in ToxCast; settings: ref ToxCast, cited from earlier work
Monooxygenase = tested on: Monooxygenase; parameters: method as in ToxCast; settings: ref ToxCast, cited from earlier work
Thyroid pathway = tested on: Thyroid pathway; parameters: method as in ToxCast; settings: ref ToxCast; cited from earlier work; note: key: Pos = positive result; Neg = negative result; Inc = uncertain/inconclusive result
Adenosine A2A (h) = Adenosine A2A (h) (Homo sapiens, UniProt P29274); experiment: Pharmacology profiling: Adenosine A2A (h) (agonist RL); type: binding; settings: read-out: Adenosine A2A (h) (agonist RL): % inhibition @10 µM
Sequence of Adenosine A2A (h) (P29274 whole entry): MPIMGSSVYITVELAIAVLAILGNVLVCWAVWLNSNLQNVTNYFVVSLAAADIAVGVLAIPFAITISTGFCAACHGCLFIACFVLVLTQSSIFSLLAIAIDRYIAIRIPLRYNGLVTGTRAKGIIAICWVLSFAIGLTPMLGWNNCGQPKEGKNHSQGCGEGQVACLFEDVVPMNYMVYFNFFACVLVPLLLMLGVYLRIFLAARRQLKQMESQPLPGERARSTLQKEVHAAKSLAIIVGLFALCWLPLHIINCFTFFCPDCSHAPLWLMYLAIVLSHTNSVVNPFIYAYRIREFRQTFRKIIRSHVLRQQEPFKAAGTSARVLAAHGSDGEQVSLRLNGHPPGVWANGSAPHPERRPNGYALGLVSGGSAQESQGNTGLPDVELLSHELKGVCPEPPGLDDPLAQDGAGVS
From the text: as §1, §2, §3, §4, §5, §6, §7, §8, §9

[4] = HepG2, 24 h, pathway differs per chemical
[5] = HepaRG, 24 h, pathway differs per chemical

SMILES: O=c1c(-c2ccc(O)cc2)coc2cc(O)ccc12 [Daidzein, DAIDZEIN]
- Apoptosis & necrosis: cell membrane permeability: Effect (HepG2 cells [1]): decrease
- AC50 (HepG2 cells [1]; read-out: Apoptosis & necrosis: caspase 3/7: AC50): > 100 µM
- AC50 (HepG2 cells [1]; read-out: Apoptosis & necrosis: cell membrane permeability: AC50): > 100 µM
- AC50 (HepG2 cells [1]; read-out: Cellular ATP: AC50): > 100 µM
- AC50 (HepG2 cells [1]; read-out: ER stress panel 1: ER integrity: AC50): > 100 µM
- AC50 (HepG2 cells [1]; read-out: Inflammation & pH: HIF1α: AC50): > 100 µM
- AC50 (HepG2 cells [1]; read-out: Inflammation & pH: intracellular pH: AC50): > 100 µM
- AC50 (HepG2 cells [1]; read-out: Mitochondrial mass: AC50): > 100 µM
- AC50 (HepG2 cells [1]; read-out: Mitochondrial membrane potential: AC50): 55.3 µM
- AC50 (HepG2 cells [1]; read-out: Nuclear size: AC50): > 100 µM
- AC50 (HepG2 cells [1]; read-out: Osmotic & heat shock: NFAT: AC50): > 100 µM
- AC50 (HepG2 cells [1]; read-out: Osmotic & heat shock: hsp70: AC50): > 25 µM
- AC50 (HepG2 cells [1]; read-out: Oxidative stress: HMOX1: AC50): 77.6 µM
- AC50 (HepG2 cells [1]; read-out: Oxidative stress: NRF2: AC50): > 100 µM
- Apoptosis & necrosis: caspase 3/7: MEC (HepG2 cells [1]; human, 24 h): 36.9 µM
- Apoptosis & necrosis: cell membrane permeability: MEC (HepG2 cells [1]; human, 24 h): 51.5 µM
- Cell stress LOEC, ↓ in mitochondrial membrane potential (HepG2 cells [1]; human, 24 h): 10.8 µM
- Cellular ATP: MEC (HepG2 cells [1]; human, 24 h): 89.4 µM
- ER stress panel 1: ER integrity: MEC (HepG2 cells [1]; human, 24 h): 82.6 µM
- Inflammation & pH: HIF1α: MEC (HepG2 cells [1]; human, 24 h): 32.3 µM
- Inflammation & pH: intracellular pH: MEC (HepG2 cells [1]; human, 24 h): 26.3 µM
- Mitochondrial mass: MEC (HepG2 cells [1]; human, 24 h): 25.9 µM
- Mitochondrial membrane potential: MEC (HepG2 cells [1]; human, 24 h): 10.8 µM
- Nuclear size: MEC (HepG2 cells [1]; human, 24 h): 69.2 µM
- Osmotic & heat shock: NFAT: MEC (HepG2 cells [1]; human, 24 h): 25.0 µM
- Osmotic & heat shock: hsp70: MEC (HepG2 cells [1]; human, 24 h): 3.3 µM
- Oxidative stress: HMOX1: MEC (HepG2 cells [1]; human, 24 h): 44 µM
- Oxidative stress: NRF2: MEC (HepG2 cells [1]; human, 24 h): 30.4 µM
- Phospholipidosis: MEC (HepG2 cells [1]; human, 24 h): 14.2 µM
- Steatosis: MEC (HepG2 cells [1]; human, 24 h): 77.4 µM
- Estrogen pathway: Cell Proliferation, Call (Estrogen pathway): Pos
- Estrogen pathway: Dimerization, Call (Estrogen pathway): Pos
- Estrogen pathway: Receptor binding, Call (Estrogen pathway): Pos
- Estrogen pathway: Reporter protein Agonist, Call (Estrogen pathway): Pos
- Estrogen pathway: Reporter protein Antagonist, Call (Estrogen pathway): Neg
- Estrogen pathway: mRNA induction, Call (Estrogen pathway): Pos
- AC50 (Estrogen pathway; read-out: Estrogen pathway: Cell Proliferation, AC50): 0.15 µM
- AC50 (Estrogen pathway; read-out: Estrogen pathway: Dimerization, AC50): 0.77 µM
- AC50 (Estrogen pathway; read-out: Estrogen pathway: Receptor binding, AC50): 0.17 µM
- AC50 (Estrogen pathway; read-out: Estrogen pathway: Reporter protein Agonist, AC50): 1.68 µM
- AC50 (Estrogen pathway; read-out: Estrogen pathway: mRNA induction, AC50): 0.15 µM
- Cytotoxicity LOEC, +S9 (U2-OS cells): >−5 Log M
- Cytotoxicity LOEC, −S9 (U2-OS cells): >−5 Log M
- inhibition at 10 µM (PDE4D2 (h)): 0.04%
- Metabolized in the skin after 24 h [2]: 55%
- Steroidogenesis: Aromatase, Call (Aromatase): Neg
- inhibition at 10 µM (5-HT2B (h)): 44.1%
- Thyroid pathway: Regulation of transcription factor activity (TSHR), Call (TSHR): Neg
- Lowest median BMD, 3 genes passing all filters (HepG2 cells [3]; [4]): 16.2 µM
- Lowest median BMD, >5 genes passing all filters (HepG2 cells [3]; [4]): 30.0 µM
- BMD relating to estrogen effects (HepG2 cells [3]; HepG2, 24 h, pathway named in the cell): None
- BMD/NOEC, gene pathway deregulation (HepG2 cells [3]; HepG2 cells): 16.2 µM
- Thyroid pathway: Deiodinase (Not AOP), Call (Deiodinase): Pos
- AC50 (Deiodinase; read-out: Thyroid pathway: Deiodinase (Not AOP), AC50): 17.2 µM
- BMD/NOEC, gene pathway deregulation (HepaRG cells; HepaRG cells): 33.1 µM
- Lowest median BMD, 3 genes passing all filters (HepaRG cells; [5]): 33.1 µM
- Lowest median BMD, >5 genes passing all filters (HepaRG cells; [5]): 39.3 µM
- BMD relating to estrogen effects (HepaRG cells; HepaRG, 24 h, pathway named in the cell): None
- Thyroid pathway: Thyroid peroxidase, Call (Thyroid peroxidase): Pos
- AC50 (Thyroid peroxidase; read-out: Thyroid pathway: Thyroid peroxidase, AC50): 10.2 µM
- Thyroid pathway: Monooxygenase (Not AOP), Call (Monooxygenase): Pos
- AC50 (Monooxygenase; read-out: Thyroid pathway: Monooxygenase (Not AOP), AC50): 9.1 µM
- Thyroid pathway: Reporter protein Agonist, Call (Thyroid pathway): Neg
- Thyroid pathway: Reporter protein Antagonist, Call (Thyroid pathway): Neg
- Thyroid pathway: mRNA induction, Call (Thyroid pathway): Neg
- inhibition at 10 µM (Adenosine A2A (h)): 20.5%
